In US20240246940A1, “HETEROARYL DERIVATIVE COMPOUND AND USE THEREOF” (VORONOI INC., priority 2021, published 2024):
Where two headings read alike, the source gives them in different places.

Tests used:
[1] = test system: BT-474 cells (HER2 overexpressing cell line); assay: BT-474 cell proliferation inhibitory activity (CellTiter-Glo, 120 hours); assay type: cell-based
Description: To evaluate the cell proliferation inhibitory activity of the compound according to the present invention on HER2 and EGFR kinases, the following method was performed using HER2 overexpressing cell lines (SK-BR-3, BT-474, and N-87) and EGFR expressing cell line (HaCaT).
McCOY'S 5A supplemented with 10% FBS was used for SK-BR-3 cells, RPMI-1640 medium supplemented with 20% FBS was used for BT-474 cancer cells, and RPMI-1640 medium supplemented with 10% FBS was used for N-87 cancer cells. DMEM supplemented with 10% FBS was used for HaCaT cells.
For SK-BR-3 cells, 5000 cells were aliquoted into each well of a white clear bottom 96 well plate (Corning) 48 hours before treatment with the compounds of Examples. For BT-474 cells, 5000 cells were aliquoted into each well of a white clear bottom 96 well plate (Corning) 48 hours before treatment with the compounds of Examples. For N-87 cells, 5000 cells were aliquoted into each well of a white clear bottom 96 well plate (Corning) 24 hours before treatment with the compounds of Examples. For HaCaT cells, 3000 cells were aliquoted into each well of a white clear bottom 96 well plate (Corning) 24 hours before treatment with the compounds of Examples. For SK-BR-3 cells and BT-474 cells, the compounds of Examples were diluted in dimethyl sulfoxide (three-fold dilution, a total of 11 concentrations) and injected each in an amount of 1 μl to a final concentration of 0.2 nM to 10 μM. For N-87 cells, the compounds of Examples were diluted in dimethyl sulfoxide (five-fold dilution, a total of 11 concentrations) and injected each in an amount of 0.5 μl to a final concentration of […] to 5 μM. For HaCaT cells, the compounds of Examples were diluted in dimethyl sulfoxide (three-fold dilution, a total of 11 concentrations) and injected each in an amount of 0.5 μl to a final concentration of 0.8 nM to 45 μM. For the measurement of living cells, the cells were stored at room temperature for 10 minutes using CellTiter-Glo cell viability reagent (Promega) after a certain period of time (SK-BR-3: 120 hours, BT-474: 120 hours, N-87: 72 hours, and HaCaT: 72 hours) post treatment with the compounds of Examples, and the luminescence intensity thereof was measured using a reader (SynergyNeo, Biotek). Each test was repeated three times.
The result values were calculated as a cell growth rate (%) compared to those of the control group. A graph was created using the GraphPad Prism version 5.0 program, and GI50 values were calculated.

[2] = test system: HaCaT cells (EGFR expressing cell line); assay: HaCaT cell proliferation inhibitory activity (CellTiter-Glo, 72 hours); assay type: cell-based
Procedure, shortened: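 Cells seeded 24 h (HaCaT 3000/well, N-87 5000/well) or 48 h (SK-BR-3, BT-474 5000/well) before 11-point dosing: 0.2 nM–10 μM (SK-BR-3, BT-474), […]–5 μM (N-87), 0.8 nM–45 μM (HaCaT). CellTiter-Glo luminescence read; GI50 from growth relative to control, triplicate.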

Structure (SMILES)	GI50 ([1]; Homo sapiens) [nM]	GI50 [1] [nM]	GI50 ([2]; Homo sapiens) [nM]	GI50 [2] [nM]
COc1cc2ncnc(Nc3cc(-c4ccco4)ccc3OC)c2cc1NC(=O)/C(F)=C\[C@@H]1CCCN1C [Example 309, (S,E)-2-fluoro-N-(4-((5-(furan-2-yl)-2-methoxyphenyl)amino)-7-methoxyquinazolin-6-yl)-3-(1-methylpyrrolidin-2-yl)acrylamide]	≤ 150		≤ 150	
C=CC(=O)N1CC[C@H](Oc2cc3c(Nc4cc(-c5ccco5)ccc4OC)ncnc3cc2OC)[C@@H](F)C1 [Example 174, 1-((3S,4S)-3-fluoro-4-((4-((5-(furan-2-yl)-2-methoxyphenyl)amino)-7-methoxy-quinazolin-6-yl)oxy)piperidin-1-yl)prop-2-en-1-one]	≤ 150		≤ 150	
C=CC(=O)N1CCC(Oc2cc3c(Nc4cc(-c5ccc(F)c(C(F)F)c5)ccc4OC)ncnc3cc2OC)CC1 [Example 196, 1-(4-((4-((3′-(difluoromethyl)-4′-fluoro-4-methoxy-[1,1′-biphenyl]-3-yl)amino)-7-methoxy-quinazolin-6-yl)oxy)piperidin-1-yl)prop-2-en-1-one]	≤ 150		150 to 1000	
COc1cc2ncnc(Nc3cc(-c4ccc(F)cc4F)c(F)cc3OC)c2cc1NC(=O)/C=C/[C@H]1CCCN1C [Example 308, (R,E)-N-(7-methoxy-4-((2′,4′,6-trifluoro-4-methoxy-[1,1′-biphenyl]-3-yl)amino)quinazolin-6-yl)-3-(1-methylpyrrolidin-2-yl)acrylamide]	≤ 150		≤ 150	
C=CC(=O)Nc1cccc(-c2ccc(OC)c(Nc3ncnc4cc(OC)c(OC5CCN(C(=O)C=C)CC5)cc34)c2)c1 [Example 208, N-(3′-((6-((1-acryloyl-piperidin-4-yl)oxy)-7-methoxy-quinazolin-4-yl)amino)-4′-methoxy-[1,1′-biphenyl]-3-yl)acrylamide]	150 to 1000		> 1000	
COc1cc2ncnc(Nc3cc(-c4ccc(F)cc4F)ccc3OC)c2cc1NC(=O)/C=C/CN1CCN(C)CC1 [Example 317, (E)-N-(4-((2′,4′-difluoro-4-methoxy-[1,1′-biphenyl]-3-yl)amino)-7-methoxyquinazolin-6-yl)-4-(4-methylpiperazin-1-yl)but-2-enamide]	≤ 150		≤ 150	
C=CC(=O)N1CCC(Oc2cc3c(Nc4cc(-c5ccc(F)c(OCC(F)(F)F)c5)ccc4OC)ncnc3cc2OC)CC1 [Example 214, 1-(4-((4-((4′-fluoro-4-methoxy-3′-(2,2,2-trifluoroethoxy)-[1,1′-biphenyl]-3-yl)amino)-7-methoxy-quinazolin-6-yl)oxy)piperidin-1-yl)prop-2-en-1-one]	≤ 150		> 1000	
COc1cc2ncnc(Nc3cc(-c4ccco4)ccc3OC)c2cc1NC(=O)/C=C/CN1C2COCC1C2 [Example 318, (E)-4-(3-oxa-6-azabicyclo[3.1.1]heptan-6-yl)-N-(4-((5-(furan-2-yl)-2-methoxyphenyl)amino)-7-methoxyquinazolin-6-yl)but-2-enamide]	≤ 150		≤ 150	
C=CC(=O)N1CCC(Oc2cc3c(Nc4cc(-c5cccc(C(=O)OC)c5)ccc4OC)ncnc3cc2OC)CC1 [Example 204, methyl 3′-((6-((1-acryloyl-piperidin-4-yl)oxy)-7-methoxy-quinazolin-4-yl)amino)-4′-methoxy-[1,1-biphenyl]-3-carboxylate]	≤ 150		150 to 1000	
C=C(F)C(=O)N1CCC(Oc2cc3c(Nc4cc(-c5ccco5)ccc4OC)ncnc3cc2OC)CC1 [Example 184, 2-fluoro-1-(4-((4-((5-(furan-2-yl)-2-methoxyphenyl)amino)-7-methoxy-quinazolin-6-yl)oxy)piperidin-1-yl)prop-2-en-1-one]	> 1000		150 to 1000	
C=CC(=O)N1CCC(Oc2cc3c(Nc4cc(-c5ccc(C#N)o5)ccc4OC)ncnc3cc2OC)CC1 [Example 183, 5-(3-((6-((1-acryloyl-piperidin-4-yl)oxy)-7-methoxy-quinazolin-4-yl)amino)-4-methoxyphenyl) furan-2-carbonitrile]	150 to 1000		150 to 1000	
C=CC(=O)N1CCC(Oc2cc3c(Nc4cc(-c5cc(OC)c(F)cc5F)ccc4OC)ncnc3cc2OC)CC1 [Example 213, 1-(4-((4-((2′,4′-difluoro-4,5′-dimethoxy-[1,1′-biphenyl]-3-yl)amino)-7-methoxy-quinazolin-6-yl)oxy)piperidin-1-yl)prop-2-en-1-one]	≤ 150		≤ 150	
C=CC(=O)N1[C@@H]2CC[C@H]1C[C@@H](Oc1cc3c(Nc4cc(-c5ccco5)ccc4OC)ncnc3cc1OC)C2 [Example 167, 1-((1R,3r,5S)-3-((4-((5-(furan-2-yl)-2-methoxyphenyl)amino)-7-methoxy-quinazolin-6-yl)oxy)-8-azabicyclo [3.2.1]octan-8-yl)prop-2-en-1-one]	≤ 150		≤ 150	

Further lines, with some results ahead:

GI50 ([1]; Homo sapiens) [nM]	GI50 [1] [nM]	Structure (SMILES)	GI50 ([2]; Homo sapiens) [nM]	GI50 [2] [nM]
≤ 150		C=CC(=O)N1CC(Oc2cc3c(Nc4cc(-c5cccc(N(C)C)c5)ccc4OC)ncnc3cc2OC)C1 [Example 199, 1-(3-((4-((3′-(dimethylamino)-4-methoxy-[1,1′-biphenyl]-3-yl)amino)-7-methoxy-quinazolin-6-yl)oxy)azetidin-1-yl)prop-2-en-1-one]	150 to 1000	
≤ 150		COc1cc2ncnc(Nc3cc(-c4ccco4)ccc3OC)c2cc1NC(=O)/C=C/CN1CCN(C)CC1 [Example 314, (E)-N-(4-((5-(furan-2-yl)-2-methoxyphenyl)amino)-7-methoxyquinazolin-6-yl)-4-(4-methylpiperazin-1-yl)but-2-enamide]	≤ 150	
≤ 150		C=CC(=O)N1CCC(Oc2cc3c(Nc4cc(-c5cccc(OC(F)(F)F)c5)ccc4OC)ncnc3cc2OC)CC1 [Example 211, 1-(4-((7-methoxy-4-((4-methoxy-3′-(trifluoro-methoxy)-[1,1′-biphenyl]-3-yl)amino)quinazolin-6-yl)oxy)piperidin-1-yl)prop-2-en-1-one]	150 to 1000	
≤ 150		C=CC(=O)N1CCC(Oc2cc3c(Nc4cc(-c5ccc(F)c(F)c5F)ccc4OC)ncnc3cc2OC)CC1 [Example 203, 1-(4-((7-methoxy-4-((2′,3′,4′-trifluoro-4-methoxy-[1,1′-biphenyl]-3-yl)amino)quinazolin-6-yl)oxy)piperidin-1-yl)prop-2-en-1-one]	150 to 1000	
≤ 150		C=CC(=O)N1CCC(Nc2cc3c(Nc4cc(-c5cccc(C=O)c5)ccc4OC)ncnc3cc2OC)CC1 [Example 209, 3′-((6-((1-acryloyl-piperidin-4-yl)amino)-7-methoxy-quinazolin-4-yl)amino)-4′-methoxy-[1,1′-biphenyl]-3-carbaldehyde]	150 to 1000	
≤ 150		C=CC(=O)N1CCC(F)(F)C(Oc2cc(OC)cc3ncnc(Nc4cc(-c5ccc(F)cc5F)ccc4OC)c23)C1 (centres unmarked) [Example 201, 1-(3-((4-((2′,4′-difluoro-4-methoxy-[1,1′-biphenyl]-3-yl)amino)-7-methoxy-quinazolin-5-yl)oxy)-4,4-difluoro-piperidin-1-yl)prop-2-en-1-one]	≤ 150	
	≤ 150	C=CC(=O)N1CCC(Oc2cc(OC)cc3ncnc(Nc4cc(-c5ccco5)ccc4OC)c23)C(F)(F)C1 (centres unmarked) [Example 99, 1-(3,3-difluoro-4-((4-((5-(furan-2-yl)-2-methoxyphenyl)amino)-7-methoxy-quinazolin-5-yl)oxy)piperidin-1-yl)prop-2-en-1-one]		≤ 150
≤ 150		C=CC(=O)N1CCC(F)(F)C(Oc2cc(OC)cc3ncnc(Nc4cc(-c5ccco5)ccc4OC)c23)C1 (centres unmarked) [Example 53, 1-(4,4-difluoro-3-((4-((5-(furan-2-yl)-2-methoxyphenyl)amino)-7-methoxy-quinazolin-5-yl)oxy)piperidin-1-yl)prop-2-en-1-one]	≤ 150	
150 to 1000		COc1ccc(-c2ccco2)cc1Nc1ncnc2cc(OC)c(OC3CCN(C(=O)C(F)Cl)CC3)cc12 (centres unmarked) [Example 188, 2-chloro-2-fluoro-1-(4-((4-((5-(furan-2-yl)-2-methoxyphenyl)amino)-7-methoxy-quinazolin-6-yl)oxy)piperidin-1-yl)ethan-1-one]	≤ 150	
